Reference: patent publication US6673832B1, “Methods for identifying compounds for treating pain” (priority 1998, dated 2004)
Like-named read-outs stand apart in the source and are kept apart here. Square brackets hold non-standard residues; d marks the D form. Peptide text beside a SMILES is read from it.

What was measured:
[1] = tested on: CCI rats; experiment: Thermal hyperalgesia (hindpaw withdrawal latency) after sciatic nerve CCI; type: in vivo, rat
Method: (§1) CCI surgery. The sciatic nerve of a rat was exposed after blunt dissection of the biceps femoris. Four chromic gut ligatures (4-0) were placed around a […] section of sciatic nerve in the mid-thigh region. The ligatures were applied so that they constricted the diameter of the nerve just enough to impede circulation through the superficial vasculature (as visualized under an operating microscope at 40×). Sham-operated rats received an identical exposure of the left sciatic nerve without CCI. A coding system blinded the investigators to the nature of the surgery performed on individual rats.
Dexamethasone inhibits CCI-induced pain sensitivity. […] Thermal hyperalgesia was defined as a reduction in the latency to hindpaw withdrawal during a thermal stimulus applied to the plantar surface. […] Presumably, chemotactic signals overwhelmed the effects of DEX by 10 days to account for differences from baseline and between hindpaws at this timepoint (FIG. 8B).

[2] = tested on: sciatic nerve in rats with a chronic constriction injury; experiment: Leukocytic profiles in sciatic nerve sections after CCI; type: in vivo, rat
Method: as §1
Histology. To compare the extent and type of cellular inflammation around the peripheral nerve due to CCI between DEX- and saline-treated rats, the ligated sciatic nerve was processed for histological analysis. At 3, 5, 7, and 10 days post-CCI, animals were euthanized with 100 mg/kg intraperitoneal sodium pentobarbital, and then transcardially perfused first with 50 ml of cold 0.9% NaCl, 1 ml/g body weight of 4% paraformaldehyde in 0.01 M phosphate buffered saline, pH 7.4 (PBS). A 2-3 cm section of sciatic nerve, or a 1 cm section of L5 and L6 spinal nerves, which included material at the ligation site, as well as that just proximal and distal to ligation, was placed in 0.01 M PBS, 4% paraformaldehyde to post-fix for 2 hours. Tissue was then embedded in paraffin, cut in 10-30 μm sections on a vibratome, and placed on glass slides. Slides were deparaffinized and then hydrated in distilled water prior to staining in freshly filtered Harris' hematoxylin for 6-15 min. After washing in running tap water for 2-5 min, sections were differentiated in 1% acid alcohol, washed briefly in tap water, and then placed in weak ammonia water until sections are bright blue. The sections were then washed thoroughly in running tap water, transferred to 80% ethanol, and then counterstained in eosin-phloxine solution prior to dehydration and mounting with Permount.
Quantitation of leukocytes in nerve sections. To detect leukocytes in injured peripheral nerve, both cellular and […] were used. To be included in the leukocyte cell count, leukocytes had to 1) have a nucleus which was clearly visible and characteristic of an infiltrating macrophage (bean-shaped nucleus), neutrophil (polymorphic nucleus) or lymphocyte (dense nucleus that fills the cytoplasm); 2) have a “foamy” macrophage appearance typical of a myelin-ingesting phagocytes; and 3) be present within the endoneurial space. Cells present within vascular spaces or containing nuclei that could not be clearly differentiated from activated Schwann cells, fibroblasts or endothelial cells were not counted.

[3] = tested on: ET-1-induced hindpaw flinching; experiment: Blockade of ET-1-induced hindpaw flinching; type: in vivo, rat; conditions: for effect on ET-1 induced hindpaw flinching: antagonist 3 mM epineurial, 20, 10 and 0 min prior to ET-1 400 μM; for significance of difference from ET-1 alone in hindpaw flinching (FIG. 3): antagonist 3 mM, 20, 10 and 0 min prior to ET-1 400 μM
Excerpt: (§2) Surgical Procedures. Adult male Sprague Dawley rats (175-225 g) were anesthetized with an intermediate-onset, short-acting volatile anesthetic (Sevaflurane, Abbott Laboratories, North Chicago, Ill.). After shaving of the hair over the left or right flank and incision of the skin, blunt dissection was made through the biceps femoris, the sciatic nerve exposed by careful microdissection away from the surrounding connective tissue, and gently elevated by insertion of a small curved hemostat placed beneath it. Following drug administration, as described below, the biceps femoris was closed with a single silk suture, and the skin closed with surgical staples.
(§3) Drug administration. The following drugs were applied epineurially: 1) 40-800 μM endothelin-1 (ET-1) (synthetic, 98% pure peptide content, American Peptides Co., Sunnyvale, Calif.); 2) the selective endothelin-A receptor antagonist, BQ-123 (American Peptides Co.; Sunnyvale, Calif.) at 3 mM; 3) the selective endothelin-B receptor antagonist, BQ-788 (American Peptides Co.; Sunnyvale, Calif.) at 3 mM; and 400 μM epinephrine (American Regent Laboratories, Inc., Shirley, N.Y.).
(§4) All drugs were dissolved in phosphate buffered saline (PBS, pH=7.4), and applied in 40 μl volumes to the epineurial surface of the exposed sciatic nerve (n=10 rats/condition). The total time for each drug application was 3-4 min. BQ-123 and BQ-788 were applied in 3 stages: 20 min prior to, 10 min prior to and 30 sec before ET-1 application. PBS was administered to control animals. Excess drug or PBS solution was absorbed by cotton gauze placed at the edge of the exposed nerve.
Morphine was administered systemically immediately before anesthesia (10 mg/kg, ip). Naloxone was administered systemically 20 min after the completion of ET-1 application (2 mg/kg, ip).
(§5) Behavioral evaluation. […] Behavioral measurements were then performed with animals freely moving on a flat surface enclosed by an inverted large Plexiglas cage. The total number of ipsilateral and contralateral spontaneous hindpaw flinches (operationally defined as complete lifting of the hindpaw off the testing surface) were counted for consecutive 5 minute periods for a total 60 minute observation period. The total duration of hindpaw lifting and time spent exploring were also recorded.

[4] = tested on: rat sciatic nerve; experiment: Epineurial application of drug to rat sciatic nerve, spontaneous hindpaw flinching; type: in vivo
Excerpt: as §2, §3, §4
In experiments involving repeated administration of ET-1, animals were re-anesthetized 75-80 min after surgery (time point after which no further hindpaw flinching was observed, as described below), and 400 μM ET-1 was applied in the same volume, as described above. Behavioral evaluation was performed, as described below, for an additional 60 min.
as §5
Data Analysis. The peak frequency of hindpaw flinching, effects at 10 min post-drug administration, and area-under-the-curve (without approximation) from 0-60 min were all used to describe response-concentration functions.

[5] = tested on: E1A cells; experiment: Microfluorometry (Fura-2) of intracellular calcium in E1A cells; type: cell-based, rat
Method: Microfluorometry in E1A cells. E1A cells (retrovirally-transformed rat dorsal root ganglion cells) were grown as a monolayer on poly-L-lysine coated coverslips in Dulbecco's modified eagle media supplemented with 10% fetal bovine serum at 37° C. in a humified atmosphere (5% CO2−95% air). Cells were used 48-72 hours after plating, at a confluence of 75 to 90%. The concentration of intracellular calcium was determined by dual excitation microfluorometry, using the calcium sensitive dye Fura-2 (Grynkiewicz, et.al., J. Biol. Chem. 260: 3440-3450, 1985). E1A cells were washed once with D-PBS (with Ca^++) and then incubated for 30 min at room temperature in D-PBS (with Ca^++) containing 7.5 μM Fura-2/AM and 0.00125% (wt/vol) pluronic-DMSO. The cells were then washed twice in D-PBS (with Ca^++) and incubated for an additional 30 minutes to allow cleavage of the Fura-2/AM to the active Fura-2.
Experiments were conducted with the coverslips in a perfusion chamber of 0.4 ml, with a constant flow rate of 4 ml/min. Each coverslip was equilibrated in D-PBS for 2 min prior to beginning an experiment. […]
Microfluorometry was performed with an inverted epifluoroscence microscope connected to a light source which provided two alternating wavelengths (Photon Technology International Deltascan). […] Background fluorescence was subtracted from each trial.

[6] = tested on: normal rats; conditions: cyclophosphamide treatment, FIGS. 11A and B
Method: For these experiments only, different groups of treated animals were tested (alternating fashion) on each test day to limit the amount of blood drawn.

[7] = tested on: circulating leukocytes; conditions: for Mean number of leukocytes: cyclophosphamide 100 mg/kg
Excerpt: Complete blood counts were serially determined on all animals receiving treatments.

[8] = naloxone 2 mg/kg ip, 20 min after ET-1

## C[C@@H]1C[C@H]2[C@@H]3CCC4=CC(=O)C=C[C@]4(C)[C@@]3(F)[C@@H](O)C[C@]2(C)[C@@]1(O)C(=O)CO [DEX, Dexamethasone]
[1]; DEX 1.5 mg/kg i.p. daily
  period post-CCI with differences from baseline and contralateral hindpaw eliminated: 3 to 7 days
[2]; 3 days post-CCI, six high-power fields (0.238 mm^2), mean ± S.D.
  Number of leukocytic profiles in sciatic nerve: 4.2 ± 0.92
[2]; 5 days post-CCI, six high-power fields, n = 1
  Number of leukocytic profiles in sciatic nerve: 12.8
[2]; 7 days post-CCI, six high-power fields, mean ± S.D.
  Number of leukocytic profiles in sciatic nerve: 23.3 ± 26.9
[2]; 10 days post-CCI, six high-power fields, mean ± S.D.
  Number of leukocytic profiles in sciatic nerve: 25.7 ± .9

## CN1CC[C@]23c4c5ccc(O)c4O[C@H]2[C@@H](O)C=C[C@H]3[C@H]1C5 [morphine]
[3]; morphine 10 mg/kg ip immediately before anesthesia, ET-1 400 μM
  effect on flinching induced by ET-1: completely blocked

## endothelin-1 [ET-1]
[4]; 400 μM ET-1
  time of peak of flinching behavior and postural changes: ≤ 30 min
[4]; 400 μM ET-1, 40 μl epineurial, 10-60 min post-administration, vs PBS
  repetitive, spontaneous hindpaw flinching: increased
[4]; 800 μM
  effect at high concentration on hindpaw flinching: apparent inhibitory effect
[4]; 40-800 μM tested
  concentration giving maximum frequency of hindpaw flinching: 400 µM
[4]; 10 minutes post ET-1 administration, FIG. 4B, read-out: concentration of half-maximal effect on hindpaw flinching
  EC50: 300 µM
[4]; same concentration of ET-1, muscle not nerve
  hindpaw flinching and postural changes after application onto or into muscles surrounding sciatic nerve: neither increased hindpaw flinching nor postural changes
[4]; second 400 μM ET-1, 15-20 min after first 60 min testing period
  hindpaw flinching after second (repeat) treatment: did not produce hindpaw flinching that was significantly different from controls
[5]; 400 μl pulse of 13.5 μM ET-1, resting level 50-100 nM
  intracellular Ca++ level reached after ET-1: ~500 nM
[5]; E1A cells, FIG. 7
  Fura-2 fluorescence during ET-1 administration: large, rapid, and transient increase

## CCCC[C@@H](NC(=O)[C@@H](Cc1cn(C(=O)OC)c2ccccc12)NC(=O)[C@H](CC(C)(C)C)NC(=O)N1[C@H](C)CCC[C@@H]1C)C(=O)O [BQ-788]
[3]
  effect on ET-1 induced hindpaw flinching: reduced hindpaw flinching significantly only at the 40 and 45 min timepoints
  significance of difference from ET-1 alone in hindpaw flinching (FIG. 3): significant at 45 and 50 min

## C=CCN1CC[C@]23c4c5ccc(O)c4O[C@H]2C(=O)CC[C@@]3(O)[C@H]1C5 [Naloxone]
[3]; [8]
  duration of reversal of the effect of morphine: approximately 10 min
  reversal of the effect of morphine on ET-1-induced flinching: rapidly reversed the effect of morphine

## CNC[C@H](O)c1ccc(O)c(O)c1 [epinephrine]
[4]; 400 μM, 60 min observation period
  hindpaw flinching after epinephrine applied to sciatic nerve: no evidence of hindpaw flinching

## O=P1(N(CCCl)CCCl)NCCCO1 (centres unmarked) [Cyclophosphamide, cyclophosphamide]
[1]; CYCLO 100 mg/kg alternate days×3 prior to CCI, until leukocyte counts returned toward normal 10 days post-surgery
  effect on hyperalgesia response in CCI-treated rats: blocked the hyperalgesia response
[6]
  analgesic effect with respect to thermal pain stimulation in normal animals: no analgesic effects
[7]; 100 mg/kg on alternate days×3 days, pre-operatively
  effect on circulating leukocyte numbers: markedly reduced
[7]; 1 day
  Mean number of leukocytes: 0.4 ± 0.1 10^3/ml
[7]; 3 days
  Mean number of leukocytes: 1.0 ± 0.3 10^3/ml
[7]; 5 days
  Mean number of leukocytes: 0.5 ± 0.4 10^3/ml
[7]; 8 days
  Mean number of leukocytes: 4.6 ± .6 10^3/ml
[7]; 10 days
  Mean number of leukocytes: 7.3 ± 1.8 10^3/ml
[7]; Baseline
  Mean number of leukocytes: 9.2 ± 0.7 10^3/ml
[7]; CYCLO-treated CCI rats, normal rats approximately 9×10^3
  Total white blood cell counts: < 1000 µL⁻¹

## CC(C)C[C@@H]1NC(=O)[C@@H](C(C)C)NC(=O)[C@@H]2CCCN2C(=O)[C@@H](CC(=O)O)NC(=O)[C@@H](Cc2c[nH]c3ccccc23)NC1=O [BQ-123] (cyclo(L[dW][dD]P[dV]))
[3]
  effect on ET-1 induced hindpaw flinching: completely blocked
  significance of difference from ET-1 alone in hindpaw flinching (FIG. 3): significant at every time point after 5 min
